Organism: Rattus norvegicus
Experiment: Open TG-GATES - Regimen: Daily Repeat
Type: toxicity, organism-based, Sprague-Dawley
Set-up: regimen Daily Repeat, gender Male, age 6 weeks
Settings: in vivo, po, 0 mg/kg, route gavage, dose level Control; for APTT / Bas / Eos / Fbg / Hb / Ht / Lym / MCH / MCHC / MCV / Mono / Neu / PT / Plat / RBC / Ret / WBC: tissue Blood; for KIDNEY_L / KIDNEY_R / KIDNEY_TOTAL: tissue Kidney; for LIVER: tissue Liver; for ALP / ALT / AST / BUN / CRE / Ca / Cl / DBIL / GLC / IP / K / LDH / Na / PL / RALB / TBIL / TC / TG / TP / gamma-GTP: tissue Plasma

O=P1(N(CCCl)CCCl)NCCCO1 (stereo not drawn) [CYCLOPHOSPHAMIDE ANHYDROUS]
TERMINAL_BW (72 h, time 3 day): 215.1 g | APTT (72 h, time 3 day): 21.5 s | Bas (72 h, time 3 day): 0% | Eos (72 h, time 3 day): 0.8% | Fbg (72 h, time 3 day): 293.2 mg/dL | Hb (72 h, time 3 day): 13.3 g/dL | Ht (72 h, time 3 day): 40.1% | Lym (72 h, time 3 day): 81.4% | MCH (72 h, time 3 day): 21.8 pg | MCHC (72 h, time 3 day): 33.2% | MCV (72 h, time 3 day): 65.7 fL | Mono (72 h, time 3 day): 2.6% | Neu (72 h, time 3 day): 14.6% | PT (72 h, time 3 day): 16.8 s | Plat (72 h, time 3 day): 112 x10_4/uL | RBC (72 h, time 3 day): 611 x10_4/ul | Ret (72 h, time 3 day): 6.7% | WBC (72 h, time 3 day): 82.4 x10_2/uL | KIDNEY_L (72 h, time 3 day): 0.9 g | KIDNEY_R (72 h, time 3 day): 0.9 g | KIDNEY_TOTAL (72 h, time 3 day): 1.9 g | LIVER (72 h, time 3 day): 10.1 g | ALP (72 h, time 3 day): 1749.2 IU/L | ALT (72 h, time 3 day): 40.2 IU/L | AST (72 h, time 3 day): 68 IU/L | BUN (72 h, time 3 day): 15.4 mg/dL | CRE (72 h, time 3 day): 0.2 mg/dL | Ca (72 h, time 3 day): 10.8 mg/dL | Cl (72 h, time 3 day): 106.2 meq/L | DBIL (72 h, time 3 day): 0.002 mg/dL | GLC (72 h, time 3 day): 182.6 mg/dL | IP (72 h, time 3 day): 6.4 mg/dL | K (72 h, time 3 day): 3.9 meq/L | LDH (72 h, time 3 day): 190.6 IU/L | Na (72 h, time 3 day): 142.6 meq/L | PL (72 h, time 3 day): 133.8 mg/dL | RALB (72 h, time 3 day): 3.1 g/dL | TBIL (72 h, time 3 day): 0.018 mg/dL | TC (72 h, time 3 day): 69.6 mg/dL | TG (72 h, time 3 day): 84.2 mg/dL | TP (72 h, time 3 day): 5.5 g/dL | gamma-GTP (72 h, time 3 day): 1 IU/L | TERMINAL_BW ([…], time 7 day): 254.4 g | TERMINAL_BW ([…], time 14 day): 304.2 g | TERMINAL_BW ([…], time 28 day): 368.5 g | APTT ([…], time 7 day): 21.7 s | Bas ([…], time 7 day): 0% | Eos ([…], time 7 day): 1% | Fbg ([…], time 7 day): 283.2 mg/dL | Hb ([…], time 7 day): 13.1 g/dL | Ht ([…], time 7 day): 39.7% | Lym ([…], time 7 day): 80% | MCH ([…], time 7 day): 20.7 pg | MCHC ([…], time 7 day): 33.1% | MCV ([…], time 7 day): 62.7 fL | Mono ([…], time 7 day): 2.4% | Neu ([…], time 7 day): 16.2% | PT ([…], time 7 day): 16.8 s | Plat ([…], time 7 day): 112.1 x10_4/uL | RBC ([…], time 7 day): 633.4 x10_4/ul | Ret ([…], time 7 day): 6.1% | WBC ([…], time 7 day): 106.9 x10_2/uL | APTT ([…], time 14 day): 22 s | Bas ([…], time 14 day): 0% | Eos ([…], time 14 day): 1% | Fbg ([…], time 14 day): 307.8 mg/dL | Hb ([…], time 14 day): 13.7 g/dL | Ht ([…], time 14 day): 40.6% | Lym ([…], time 14 day): 81.4% | MCH ([…], time 14 day): 20.2 pg | MCHC ([…], time 14 day): 33.7% | MCV ([…], time 14 day): 60 fL | Mono ([…], time 14 day): 2.2% | Neu ([…], time 14 day): 14.6% | PT ([…], time 14 day): 15 s | Plat ([…], time 14 day): 118.8 x10_4/uL | RBC ([…], time 14 day): 676.6 x10_4/ul | Ret ([…], time 14 day): 4.8% | WBC ([…], time 14 day): 131.2 x10_2/uL | APTT ([…], time 28 day): 23.8 s | Bas ([…], time 28 day): 0% | Eos ([…], time 28 day): 1% | Fbg ([…], time 28 day): 303.8 mg/dL | Hb ([…], time 28 day): 14.8 g/dL | Ht ([…], time 28 day): 43.6% | Lym ([…], time 28 day): 82.4% | MCH ([…], time 28 day): 19.2 pg | MCHC ([…], time 28 day): 34% | MCV ([…], time 28 day): 56.6 fL | Mono ([…], time 28 day): 2% | Neu ([…], time 28 day): 13.6% | PT ([…], time 28 day): 16.5 s | Plat ([…], time 28 day): 96.2 x10_4/uL | RBC ([…], time 28 day): 769.8 x10_4/ul | Ret ([…], time 28 day): 2.9% | WBC ([…], time 28 day): 112.3 x10_2/uL | KIDNEY_L ([…], time 7 day): 1.1 g | KIDNEY_R ([…], time 7 day): 1.1 g | KIDNEY_TOTAL ([…], time 7 day): 2.2 g | KIDNEY_L ([…], time 14 day): 1.2 g | KIDNEY_R ([…], time 14 day): 1.2 g | KIDNEY_TOTAL ([…], time 14 day): 2.4 g | KIDNEY_L ([…], time 28 day): 1.3 g | KIDNEY_R ([…], time 28 day): 1.3 g | KIDNEY_TOTAL ([…], time 28 day): 2.6 g | LIVER ([…], time 7 day): 11 g | LIVER ([…], time 14 day): 13.4 g | LIVER ([…], time 28 day): 14.2 g | ALP ([…], time 7 day): 1566.6 IU/L | ALT ([…], time 7 day): 44.8 IU/L | AST ([…], time 7 day): 77.6 IU/L | BUN ([…], time 7 day): 18.6 mg/dL | CRE ([…], time 7 day): 0.2 mg/dL | Ca ([…], time 7 day): 10.7 mg/dL | Cl ([…], time 7 day): 106 meq/L | DBIL ([…], time 7 day): 0 mg/dL | GLC ([…], time 7 day): 196.2 mg/dL | IP ([…], time 7 day): 7.9 mg/dL | K ([…], time 7 day): 4.4 meq/L | LDH ([…], time 7 day): 200.2 IU/L | Na ([…], time 7 day): 143.8 meq/L | PL ([…], time 7 day): 146.8 mg/dL | RALB ([…], time 7 day): 2.9 g/dL | TBIL ([…], time 7 day): 0.016 mg/dL | TC ([…], time 7 day): 73.8 mg/dL | TG ([…], time 7 day): 98.2 mg/dL | TP ([…], time 7 day): 5.4 g/dL | gamma-GTP ([…], time 7 day): 1.6 IU/L | ALP ([…], time 14 day): 1394.4 IU/L | ALT ([…], time 14 day): 37.8 IU/L | AST ([…], time 14 day): 65.8 IU/L | BUN ([…], time 14 day): 18.2 mg/dL | CRE ([…], time 14 day): 0.2 mg/dL | Ca ([…], time 14 day): 10.6 mg/dL | Cl ([…], time 14 day): 107 meq/L | DBIL ([…], time 14 day): 0 mg/dL | GLC ([…], time 14 day): 182.6 mg/dL | IP ([…], time 14 day): 7 mg/dL | K ([…], time 14 day): 4 meq/L | LDH ([…], time 14 day): 152 IU/L | Na ([…], time 14 day): 143.4 meq/L | PL ([…], time 14 day): 140.4 mg/dL | RALB ([…], time 14 day): 2.9 g/dL | TBIL ([…], time 14 day): 0.012 mg/dL | TC ([…], time 14 day): 67.4 mg/dL | TG ([…], time 14 day): 147.4 mg/dL | TP ([…], time 14 day): 5.7 g/dL | gamma-GTP ([…], time 14 day): 1.4 IU/L | ALP ([…], time 28 day): 1084 IU/L | ALT ([…], time 28 day): 40.4 IU/L | AST ([…], time 28 day): 66.4 IU/L | BUN ([…], time 28 day): 17.4 mg/dL | CRE ([…], time 28 day): 0.2 mg/dL | Ca ([…], time 28 day): 10.3 mg/dL | Cl ([…], time 28 day): 106.6 meq/L | DBIL ([…], time 28 day): 0 mg/dL | GLC ([…], time 28 day): 181.2 mg/dL | IP ([…], time 28 day): 6.4 mg/dL | K ([…], time 28 day): 4 meq/L | LDH ([…], time 28 day): 121.8 IU/L | Na ([…], time 28 day): 144 meq/L | PL ([…], time 28 day): 135.4 mg/dL | RALB ([…], time 28 day): 3.1 g/dL | TBIL ([…], time 28 day): 0.02 mg/dL | TC ([…], time 28 day): 67 mg/dL | TG ([…], time 28 day): 111.2 mg/dL | TP ([…], time 28 day): 6.2 g/dL | gamma-GTP ([…], time 28 day): 1.2 IU/L

Source: ChEMBL document CHEMBL3885861, “Open TG-GATES”
